Laboratory results taken from ChEMBL document CHEMBL1255275, “Drug-regulated expression of Plasmodium falciparum P-glycoprotein homologue 1: a putative role for nuclear receptors” (Antimicrob Agents Chemother, 2008).
Calls of active or inactive are those of the source. The rule behind the calls is not given here.

Experiments:
Plasmodium falciparum [1] = assay: Increase in Pgh1 expression chloroquine-sensitive Plasmodium falciparum K1Hf by Western blot relative to untreated control; type: functional
Plasmodium falciparum [2] = assay: Increase in PfCRT expression chloroquine-sensitive Plasmodium falciparum K1Hf by Western blot relative to untreated control; type: functional, organism-based
Plasmodium falciparum [3] = assay: Increase in PfCRT expression in chloroquine-sensitive Plasmodium falciparum K1AM by Western blot relative to untreated control; type: functional, organism-based
Plasmodium falciparum [4] = assay: Increase in Pgh1 expression in chloroquine-resistant Plasmodium falciparum R1H6/2 by Western blot relative to untreated control; type: functional
Plasmodium falciparum [5] = assay: Increase in Pgh1 expression in chloroquine-sensitive Plasmodium falciparum K1AM by Western blot relative to untreated control; type: functional
Plasmodium falciparum [6] = assay: Increase in PfCRT expression in chloroquine-resistant Plasmodium falciparum R1H6/2 by Western blot relative to untreated control; type: functional, organism-based

## CCC1(c2ccccc2)C(=O)NC(=O)NC1=O [PHENOBARBITAL]
Plasmodium falciparum [1]
  fold change (FC): 5.4
Plasmodium falciparum [2]
  Activity: inactive
Plasmodium falciparum [3]
  Activity: inactive
Plasmodium falciparum [4]
  fold change (FC): 6.4
Plasmodium falciparum [5]
  fold change (FC): 4.7
Plasmodium falciparum [6]
  Activity: inactive
